The record followed here is a melting point compilation (Tetko et al.; mined from patent text by program, amines drawn as free bases though some values may be those of a salt).

Molecule `CSc1ccc(F)cc1C(=O)Cn1cccc1` returned a melting point of 133 to 134 °C.

Turning to `N#Cc1ccc(CN2CCNC2=O)cc1`, the melting point was in the range of 127 to 133 °C.

`CCCOCCOc1ccc(-c2ccc3c(c2)C=C(C(=O)Nc2ccc(CN(C)C4CCOCC4)cc2)CCS3(=O)=O)cc1C`: the melting point is 192 to 195 °C.

With `CC(C)(C)c1ccc(-c2c(Cl)c(CCl)nc3sc4c(c23)CCN(Cc2ccccc2)C4)cc1`, the melting point fell in the range of 208 to 209 °C.

As for `O=C1NCCc2[nH]c3c(Br)cccc3c21`, the melting point lay in the range of 268 to 270 °C.

The molecule `CCOC(=O)c1nn(-c2ccccc2)c2c1COc1ccccc1-2` gave a melting point of 154 to 156 °C.

For `CC1CC2=CC(=O)CCC2C2CCC3(C)C(C(F)F)CCC3C12` (centres undefined), the melting point was 131 to 135 °C.

On to `Cc1nnc2ncc(-c3ccccc3F)nn12`, for which the melting point was 200 to 204 °C.

With `COc1cc(COc2nn(-c3ccccc3)cc2CC2=NCCO2)ccc1OCc1nc(-c2ccco2)oc1C`, the melting point fell in the range of 95 to 96 °C.

Consider `Nc1nc(C(=O)O)c(-c2ccncc2)s1`, for which the melting point is 211 °C.

For the molecule `CCCCCc1c(C(C)C)nc(C(C)C)c(C(C)O)c1-c1ccc(F)cc1` (centres undefined), the melting point was 83 °C.

Consider `O=C(N(Cc1cccnc1)c1ccc(Cl)cc1)C(F)(F)F`, for which the melting point is 80 to 81 °C.

`Cc1cc(Br)c(Cl)cc1Cl` returned a melting point of 82.5 to 84 °C.

As for `CCCSC1(C(F)(F)F)C=NC(=O)Nc2ccc(Cl)cc21` (centres undefined), the melting point lay within 156 to 157 °C.

With `ClCc1nc(NCc2ccccn2)c2c(-c3ccccc3)csc2n1`, the melting point lay in the range of 97 to 99 °C.

`O=c1[nH]c2ncc(-c3ccc(F)nc3)nc2n1CC1CCOCC1` displayed a melting point of 220 to 222 °C.

`COC(=O)C1=C(C)NC(C)=C(C(=O)OCC2CCCO2)C1c1ccccc1Br` (centres undefined) registered a melting point of 170 to 172 °C.

`CC(C)n1cncc1CO` gave a melting point of 83 to 84 °C.

Regarding `COc1cc(OC)c(-c2cncnc2)cc1/C=C/C(=O)c1ccc(C(=O)O)cc1`, the melting point is > 260 °C.

For `COc1ccccc1N1CCN(CCN(C(=O)C2CCCCC2)c2ccccc2OCC(F)(F)F)CC1`, the melting point lay within 110 to 112 °C.

`CCC(=O)c1ccc2c(c1)C1(CC1)C(=O)N2` gave a melting point of 183 to 185 °C.

In turn, `CS(=O)(=O)Cc1c(C(=O)c2cnoc2C2CC2)ccc(S(C)(=O)=O)c1Cl` displayed a melting point of 110 °C.

In the case of `CCCCCCCCS(=O)(=O)NC(Cc1cc2c(N)nccc2s1)C(=O)N1CCC(C)CC1` (centres undefined), the melting point fell in the range of 101 to 112 °C.

Turning to `COC(=O)CCc1ccc(CCNC(=O)c2cc(Cl)ccc2OC)cc1`, the melting point is 58 to 61 °C.

As for `O=C1NCC(Cc2cccc(Cl)c2)O1` (centres undefined), the melting point lay within 113 to 114 °C.

The molecule `[N-]=[N+]=Nc1cc(N)cc(I)c1` came in with a melting point of 89 to 91 °C.

Turning to `COc1ccc(Cl)cc1C1(F)C(=O)Nc2c(C(F)(F)F)cccc21` (centres undefined), the melting point lay in the range of 230 to 233 °C.

Regarding `COc1ccc(-c2cc3ccc(C(=O)O)cc3o2)cc1C(C)(C)C`, the melting point was determined as 235 °C.

The molecule `N#Cc1cc(N2CCC(c3cc(Cl)cc(Cl)c3)(C(F)(F)F)C2)ccc1F` (centres undefined) displayed a melting point of 184 to 186 °C.

`COC(=O)[C@@H]1CCN1S(=O)(=O)c1ccc(Cl)c(COc2cccc3c(-n4ccnc4)cc(C)nc23)c1Cl` registered a melting point of 80 °C.

`Cc1cc(-c2c(Cl)ccc(C(=O)O)c2Cl)on1` came in with a melting point of 154 to 156 °C.

`NC(c1ccccc1)c1ccc(OCCCOc2ccc(C(N)c3ccccc3)cc2)cc1` (centres undefined) came in with a melting point of 118 to 119 °C.

`O=C(O)c1cc(OCc2ccccc2)cc(C(F)(F)F)c1` showed a melting point of 143 to 145 °C.

Consider `Cc1nc2ccc3c(c2nc1C)C(=O)c1ccccc1C3=O`, for which the melting point was > 400 °C.

With `CC1(N2Cc3cc(CNC(=O)c4ccc(Cl)c(Cl)c4)ccc3C2=O)CCC(=O)NC1=O` (centres undefined), the melting point is 220 to 222 °C.

For the molecule `C=CCOc1ccccc1-c1ccc(C#N)cc1`, the melting point was in the range of 68 to 69 °C.

In turn, `COC(=O)C(=O)Nc1ccc(C(CC2CCCC2)C(=O)Nc2nccs2)cc1` (centres undefined) had a melting point of 95 to 98 °C.

`OC(c1ccccc1)(c1ccccc1)C1CCN(Cc2ccccc2)CC1` yielded a melting point of 89.5 to 90.5 °C.

Regarding `Oc1ncnc2c1c(-c1ccco1)nn2Cc1ccccc1`, the melting point is 242 °C.

`O=C(c1ccc(Cl)cc1)c1ccc(CBr)cc1` returned a melting point of 103 to 104 °C.

Molecule `Cc1ccc(S(=O)(=O)NC2N=C(c3ccccc3F)c3ccccc3NC2=O)cc1` (racemic) registered a melting point of 215 to 216 °C.

`CC(C)(C)O[C@@H]1C[C@@H](COCc2ccccc2)N(S(=O)(=O)c2ccc3ccccc3c2)C1` showed a melting point of 101 to 103 °C.

For `Oc1nc(-c2cccnc2)sc1-c1ccccc1`, the melting point fell in the range of 273 to 276 °C.

On to `COc1cccc2c1C(=O)N(CSc1ccccc1)S2(=O)=O`, for which the melting point is 152 to 154 °C.

`CSc1ccc(C=CC(=O)C=Cc2ccc(SC)cc2)cc1` returned a melting point of 143 to 145 °C.

Molecule `CNC1(c2ccccc2Cl)C(=O)N(S(=O)(=O)c2ccc(OC)cc2OC)c2c(F)cc(Cl)cc21` (centres undefined) returned a melting point of 183 to 185 °C.

In the case of `COc1cccc2c1cc(C=O)n2Cc1ccccc1`, the melting point is 130 to 131 °C.

Turning to `CCOC(=O)C(=O)C1C(=O)c2c(OC)ccc3c2C1CCO3` (centres undefined), the melting point lay in the range of 104 to 106 °C.

Regarding `COc1cc(C(=O)NS(=O)(=O)c2ccccc2)ccc1Cc1cn(C)c2ccc(NC(=O)OC3CCCC3)cc12`, the melting point was in the range of 125 to 130 °C.

As for `Cc1c(F)c(F)c(F)c2c1c(=O)c(C(=O)O)cn2CCO`, the melting point is 244 to 247 °C.

With `CCNC(=O)[C@H]1CN(c2ccc3c(c2)sc(=O)n3C)C(=O)O1`, the melting point lay in the range of 224 to 226 °C.

In turn, `O=C(CC1CCOC1=O)c1ccccc1` (centres undefined) came in with a melting point of 77 to 79 °C.

Molecule `CCCCN(CCCC)CCCOc1ccc(C(=O)c2c(-c3ccccc3)n(C)c3ccc(NS(C)(=O)=O)cc23)cc1` displayed a melting point of 116 °C.

On to `O=[N+]([O-])c1ccc(-c2cc3c(Cl)ncnc3[nH]2)cc1`, for which the melting point was > 280 °C.

As for `CC(C)(C)OC(=O)Nc1ccc(-c2c[nH]c(=O)cn2)cc1`, the melting point was in the range of 267 to 269 °C.

Consider `Cc1nc2c3c(ccn2c1C)C(O)CC(c1ccsc1)N3` (centres undefined), for which the melting point lay in the range of 192 to 194 °C.

Take `O=C(Nc1ccccc1C(c1ccc(O)cc1)c1ccc(O)cc1)C12CC3CC(CC1C3)C2`: the melting point was in the range of 155 to 157 °C.

`COc1ccc2[nH]c(/C(=C/c3ccccc3)c3ccccc3)cc2c1` gave a melting point of 144 to 147 °C.

Turning to `CCCC(=O)N(CCC)C1Cc2ccc(-c3ccc(=O)[nH]n3)cc2C1` (single isomer, unassigned; (+)), the melting point is 159 to 160 °C.

Molecule `COc1cc(C(=O)O)cc(OC)c1N(C)C` had a melting point of 65 to 69 °C.

As to `CCCCc1nc(Cl)c(CO)n1Cc1ccc(Oc2ccccc2C(=O)O)cc1`, the melting point was 178 to 180 °C.

In turn, `CC(C)NC(=O)c1ccccc1` had a melting point of 101 to 103 °C.

Take `Clc1cccc(Nc2ccc(Oc3ccccc3)cc2)n1`: the melting point fell in the range of 69 to 73 °C.

As to `O=C1CSC(N2CCN=C(c3ccccc3Cl)c3cc(Cl)ccc32)=N1`, the melting point lay in the range of 217 to 218 °C.

Take `COC(=O)c1ccc(O)cc1NC(=O)C=Cc1ccc(-c2ccccc2)cc1`: the melting point is 292 to 296 °C.

Turning to `CC(C)(C)[Si](C)(C)Oc1ccc2c(c1)C(=O)c1ccc(O[Si](C)(C)C(C)(C)C)cc1C2=O`, the melting point lay in the range of 131 to 133 °C.

On to `COc1ccc(CNc2ncnc3c2ncn3C2OC(CN=[N+]=[N-])C(O)C2O)cc1` (centres undefined), for which the melting point is 191 °C.

Turning to `NC(=O)NN=C1CC(O)C(C=Cc2ccccc2)=C1CCCCCCC(=O)O` (centres undefined), the melting point was in the range of 208 to 210 °C.

On to `O=c1oc(Nc2ccccc2F)nc2ccccc12`, for which the melting point fell in the range of 152 to 155 °C.

The molecule `CCC(=CC(CNC(=O)c1cnccc1C(N)=O)=NO)C(C)[N+](=O)[O-]` (centres undefined) returned a melting point of 122 to 123 °C.

Molecule `CC(=O)c1cc(C)c(OCC(=O)O)c(C)c1` registered a melting point of 166 to 167 °C.

For `CCCCCCCCc1ccc(OCC(=O)Cn2ccc3ccccc32)cc1`, the melting point came to 65 °C.

Turning to `COc1ncc(CN2C(=O)C3(COc4cc5c(cc43)OCO5)c3ccccc32)s1` (centres undefined), the melting point was 164 to 166 °C.

`Cc1cc(C)c2c(c1C)OC(=O)C2c1ccc(C(C)C)cc1` (centres undefined) showed a melting point of 107 to 108 °C.

Turning to `CCCc1c(C(=O)C2CC2)c2ccc(C(N)=O)cc2n1Cc1cc2c(cc1Cl)OCO2`, the melting point fell in the range of 162 to 164 °C.

In the case of `Nc1ccc(-c2noc(-c3cnn4c(C(F)(F)F)cc(-c5ccc(C(F)(F)F)cc5)nc34)n2)cn1`, the melting point came out at 257 °C.

`CCOC(=O)c1ccc(NC=O)c(C(=O)CCNC(=O)OC(C)(C)C)c1` showed a melting point of 135 to 137 °C.

In turn, `COC(=O)Nc1nc(C)c(C(=O)c2sc(NC(=O)OC)nc2C)s1` returned a melting point of 188 to 189 °C.

Turning to `CS(=O)(=O)c1c(Sc2ccccc2)cccc1C(=O)O`, the melting point was 185 to 186 °C.

On to `CCCC1=C(C)C(=O)c2oc(Cc3ccc(OC)cc3)c(C)c2C1=O`, for which the melting point came out at 114 °C.

For `CC(C)n1c(CCC2C[C@@H](O)CC(=O)O2)c(-c2ccc(F)cc2)c(-c2ccccc2)c1C(=O)Nc1ccccc1` (some centres undefined), the melting point is 128 to 129 °C.

In turn, `O=C(O)C1CNc2cc(C(F)(F)F)ccc2O1` (centres undefined) showed a melting point of 105 to 107 °C.

Regarding `Cc1cc(C)c2nc(C3CC3)n(Cc3ncc(C4(C(=O)O)CC=CC4)cn3)c2n1`, the melting point fell in the range of 203 to 204 °C.

On to `C/C(=C\c1ccc(CO)cc1)c1ccc2c(c1)C(C)(C)CCO2`, for which the melting point fell in the range of 80 to 81 °C.

As to `C#C[C@]1(OC(C)=O)CC[C@H]2[C@@H]3CC(=C)C4=CC(=O)CC[C@@H]4[C@H]3CC[C@@]21C`, the melting point was determined as 157 °C.

Consider `Cc1cccc2c(Cl)nc(Cl)nc12`, for which the melting point lay in the range of 180 to 230 °C.

For `CC1(C)COC(=O)[C@@H]1Oc1ccc(C#N)c(C(F)(F)F)c1`, the melting point is 89.9 to 90.7 °C.

`CCOC(=O)c1cc(=O)c2c(OCC(O)COc3ccc(C(C)(C)C)cc3)cccc2o1` (centres undefined) yielded a melting point of 99 to 102 °C.

On to `O=C(c1ccc(Cl)cc1)C1(n2cnc(Cl)n2)CC1`, for which the melting point turned out to be 85 °C.
